Measured values: US20220144913A1, “PERSONALIZED AND TIMED RELEASE OF BIOMOLECULES” (The General Hospital Corporation, priority 2019, published 2022)
Entries after “also recorded” stand apart in the source; their conditions may differ. Read-outs that look alike come from different tables or passages of the source.

Experiments:
[1] = tested on: circadian clocks of Jurkat human leukemic T-cells; assay: KL001 disruption of circadian clock driven GLUC secretion, continuous flow; type: cell-based; conditions: 20 μM KL001 for 24 hours before dexamethasone synchronization
Method: Luminescence was recorded by the device as relative luminescence units (RLU). Continuous monitoring of plasma luciferase from mice is described in a separate section below. To monitor continuous secretion of luciferase from cells in vitro over time, cells were seeded onto a custom-made constant flow cell culture and collection device. For each experiment, 16×10^6 cells in approximately 2 ml of media were injected into a tube-like bag made from air permeable material (Rogers Corporation HT-6240 Transparent 0.010″) with approximate dimensions of 20 cm in length and 0.6 cm in diameter. We have previously shown that vessels made from this material are optimal for the expansion of human T-cells (Li et al. 2018). Silicone tubing (Platinum LS14 Masterflex cat #96410-14) was used to connect the cell containing vessel to media filled syringes operated by a PHD 2000 syringe pump (Harvard Apparatus) and to a Biologic Biofrac fraction collector (Biorad). Cells were allowed to settle for 3-4 hours prior to flowing media at 3.8 ml/hour. […] For circadian experiments, cells were synchronized with 10 μM dexamethasone (Sigma cat #D4902) for 30 minutes, washed 3 times with PBS and seeded onto a continuous flow vessel either immediately or after a 24-hour incubation. […]

NFkB = assay: NFkB-GLuc reporter stimulation in HepG2 hepatocytes; type: cell-based; conditions: two doses of stimulant; media sampled after 12 hours
Description: HepG2 hepatocytes were engineered with the NFkB-GLuc construct and stimulated with either inflammatory LPS or IL-1b at two different doses.

[2] = in vivo; cited from earlier work
[3] = in vivo; cited from earlier work; remark: listed apart in the source
DS-1 cells = assay: IL-6-dependent proliferation of DS-1 cells in sGP130 conditioned media; type: cell-based; conditions: conditioned media with secreted sGP130 from cells engineered with EF1α-sGP130
Description: Media from cells engineered with EF1a-sGP130 constructs was sampled, along with cell lysate, showing that measurable protein levels increase over time (FIG. 15A).
Media from cells engineered with EF1α-sGP130 constructs was sampled, along with cell lysate, showing that measurable protein levels increase over time (FIG. 15A).

## CS(=O)(=O)N(Cc1ccco1)CC(O)Cn1c2ccccc2c2ccccc21 (stereo not shown) [KL001]
[1]; stable Jurkat Circa2-GLUC cells
  effect on dynamic nature of Circa2 driven GLUC secretion: severely disrupting the dynamic nature; also recorded: abolishes dynamic nature
[1]; stable Jurkat EF1α-GLUC cells
  effect on EF1α driven GLUC secretion: little to no effect

## IL-1b: cytokine stimulant acting on a different response element (MAPK)
NFkB
  relative GLuc signal: not stimulated

## bacterial lipopolysaccharide [LPS]
NFkB
  relative GLuc signal: increased dose dependently

## glucagon-like petide-1 (HAEGTFTSDVSSYLEGQAAKEEFIIAWLVKGRG; listed as Homo sapiens) [GLP1]
[2]
  half-life: 30 min

## parathyroid hormone [PTH]
[3]
  half-life: around 5 minutes

B1: sGP130: soluble GP130 secreted from cells engineered with EF1α-sGP130 constructs; inhibits IL-6 signaling (protein)
chain: QLLEPCGYIYPEFPVVQRGSNFTAICVLKEACLQHYYVNASYIVWKTNHAAVPREQVTVINRTTSSVTFTDVVLPSVQLTCNILSFGQIEQNVYGVTMLSGFPPDKPTNLTCIVNEGKNMLCQWDPGRETYLETNYTLKSEWATEKFPDCQSKHGTSCMVSYMPTYYVNIEVWVEAENALGKVSSESINFDPVDKVKPTPPYNLSVTNSEELSSILKLSWVSSGLGGLLDLKSDIQYRTKDASTWIQVPLEDTMSPRTSFTVQDLKPFTEYVFRIRSIKDSGKGYWSDWSEEASGTTYEDRPSRPPSFWYKTNPSHGQEYRSVRLIWKALPLSEANGKILDYEVILTQSKSVSQTYTVTGTELTVNLTNDRYVASLAARNKVGKSAAAVLTIPSPHVTAAYSVVNLKAFPKDNLLWVEWTPPPKPVSKYILEWCVLSENAPCVEDWQQEDATVNRTHLRGRLLESKCYQITVTPVFATGPGGSESLKAYLKQAAPARGPTVRTKKVGKNEAVLAWDQIPVDDQNGFIRNYSISYRTSVGKEMVVHVDSSHTEYTLSSLSSDTLYMVRMAAYTDEGGKDGPEFTFTTPKFAQGEIE
DS-1 cells
  proliferation of DS-1 cells: proliferation is suppressed; also recorded: suppress IL-6-dependent proliferation
